Columns and labels:
Type in all cases: cell-based
[1] = test system: Bacillus megaterium DSM 32963 cells; assay: Lipidometabolomics (UPLC-MS/MS) of PUFA oxygenation products in supernatants of B. megaterium DSM 32963 with AvailOm; details: for abundance with dispersion formulation and/or bile acids compared to AvailOm alone (in words): B. megaterium DSM 32963 supernatants; for Extracellular concentration of PUFA oxygenation product: − bile acids, net of cell-free control
Method: To investigate the amount of extracellularly appearing 18-HEPE, the B. megaterium DSM 32963 cells were cultivated as described in example 1. The cells were resuspended in 10 ml LBG or LBG containing 9.76 g/I FeSSIF-V2 (biorelevant.com), which is a mixture of taurocholate, phospholipids and other components designed to simulate bile surfactants, and 2 ml of supplements (table 2) were added, respectively. Additionally, the supplements were also added respectively to the different media in shaking flasks without cells and treated under the same conditions (controls). The 18-HEPE concentrations of the culture supernatants and controls were determined after incubation at 16 h, 30° C. and 200 rpm (table 4). […] Of note, the omega-3 4 18-HEPE conversion rate detected by this method is up to 0.075, which exceeds the basal content of 18-HEPE of 0.0005% in an esterified fish oil, disclosed by WO 2017/041094. More importantly, we discovered that the omega-3 lysine salt is converted by Bacillus megaterium strains to a multitude of (final) SPM products at even higher concentrations than 18-HEPE (see example 6), which is of physiological relevance.
(§1) Bacterial supernatant samples were subjected to lipid extraction using RP-phase solid phase extraction and subsequently analyzed by ultra performance liquid chromatography ESI tandem mass spectrometry (UPLC-MS/MS) according to a published procedure. Under these conditions approximately 40 different LM, including 5-hydroxy-eicosapentaenoic acid 5-HEPE, 8-HEPE, 11-HEPE, 12-HEPE, 15-HEPE, 18-HEPE, 5-hydroxy-eicosatetraenoic acid (5-HETE), 8-HETE, 11-HETE, 12-HETE, 15-HETE, 4-hydroxy-DHA (4-HDHA), 7-HDHA, 13-HDHA, 14-HDHA, 17-HDHA, lipoxin A4 (LXA4), LXB4, resolvin E1 (RvE1), RvE3, resolvin D1-5 (RvD1-5), AT-RvD1, RvD2, protectin D1 (PD1), AT-PD1, maresin 1(MaR1), MaR2, plus 4 fatty acid substrates can be detected with a lower limit of detection of 1 pg.
To investigate if Bacillus megaterium is capable of producing other PUFA oxygenation products in addition to 18-HEPE, a lipidometabolomics screening of supernatants from Bacillus megaterium strain 32963 cultured as in example 4 with AvailOm® was performed, either dissolved or in a dispersion formulation, with or without bile acids. Cell-free preparations of AvailOm® formulations were treated and analyzed in parallel and served as controls for non-enzymatic, spontaneous formation of oxygenation products. Values given in table 6 display net concentrations of products formed, i.e. after subtraction of control values. […] Concentrations of several SPM exceed by far the concentrations of SPM found in human plasma samples, which are typically in a range of ˜20-100 pg/ml. For comparison, human breast milk contains ˜6.000 pg/ml RvE1 and ˜10.000 pg/ml RvD1 [42].

[2] = test system: Bacillus megaterium DSM 33296; assay: Lipidometabolomics of supernatants of B. megaterium DSM 33296 with AvailOm dispersion; details: Bacillus megaterium DSM 33296, AvailOm dispersion; net concentrations
Description: as §1
(§2) 47 additional Bacillus megaterium strains sourced from various habitats were screened for their SPM production capacity to determine if this is a general phenomenon of the species Bacillus megaterium and to detect strain-specific differences in types and quantities of SPM being produced. Cells were cultured as detailed in example 4, with dispersion formulation of AvailOm® serving as omega-3 fatty acid source. Cell-free preparations of AvailOm® were treated and analyzed in parallel and served as controls for non-enzymatic, spontaneous formation of oxygenation products. […]

[3] = test system: Bacillus megaterium DSM 33299; assay: Lipidometabolomics of supernatants of B. megaterium DSM 33299 with AvailOm dispersion; details: Bacillus megaterium DSM 33299, AvailOm dispersion; net concentrations
Description: as §1, §2

[4] = test system: Bacillus megaterium strains; assay: Screen of 47 additional Bacillus megaterium strains for SPM production capacity; details: 47 additional strains, AvailOm dispersion
Description: as §1, §2

Molecule | abundance with dispersion formulation and/or bile acids compared to AvailOm alone (in words) [1] | further results
5-hydroxy-eicosatetraenoic acid [5-HETE] | lower | –
9-hydroxyoctadecadienoic acid [9-HODE] | lower | –
11-hydroxy-eicosapentaenoic acid [11-HEPE] | lower | –
12-hydroxy-eicosapentaenoic acid [12-HEPE] | lower | –
CCC=CCC=CCC=CCC=CC=CC(O)CCCC(=O)O (stereo not shown) [5-HEPE, 5-hydroxy-eicosapentaenoic acid] | lower | –
CCCCC/C=C\C/C=C\C=C\C(O)C/C=C\CCCC(=O)O (stereo not shown) [8-HETE, 8-hydroxy-eicosatetraenoic acid] | lower | –
CC/C=C\CC(O)/C=C/C=C\C/C=C\C/C=C\CCCC(=O)O (stereo not shown) [15-HEPE, 15-hydroxy-eicosapentaenoic acid] | lower | –
CCC(O)/C=C/C=C\C/C=C\C/C=C\C/C=C\CCCC(=O)O (stereo not shown) [18-HEPE, 18-hydroxy-eicosapentaenoic acid] | lower | –
CC/C=C\C[C@H](O)/C=C/C=C\C=C\C=C\[C@@H](O)[C@@H](O)C/C=C\CCC(=O)O [RvD1, resolvin D1] | – | Extracellular concentration of PUFA oxygenation product [2]: 3626 pg/mL; Extracellular concentration of PUFA oxygenation product [3]: 4389 pg/mL; Extracellular concentration of PUFA oxygenation product ([1]; AvailOm dispersion): 1863 pg/mL; Extracellular concentration of PUFA oxygenation product ([1]; AvailOm): 598 pg/mL
CC[C@H](O)C(O)/C=C/C=C/C=C\C/C=C\C/C=C\CCCC(=O)O (stereo partly shown) [RvE3, resolvin E3] | – | concentration in most of the strains [4]: up to 1.3 μg/ml
